Measurements taken from patent US5244917A, “Substituted naphthofurans as anti-inflammatory agents” (The DuPont Merck Pharmaceutical Company, priority 1992, dated 1993).

Legend:
Platelet phospholipase C = assay: Platelet Phospholipase C Assay; type: biochemical; details: 100,000×g supernatant extract of platelet cells; 3H phosphatidylinositol substrate; mantissa only, the power of ten is printed apart; read-out: PLC IC50
Procedure: Platelet phospholipase C was measured using a 100,000×g supernatant extract of platelet cells as the enzyme preparation. The assay mixture consisted of (in final concentrations): ^3 H myoinositol phosphatidylinositol, ([…], 0.1Ci), CaCl2 (5 mM), Tris acetate buffer (60 mM, pH 4.5-7.5), sodium deoxycholate (2 mg/ml), platelet supernatant protein heated at 100° C. for 5 min (1 mg/ml), all in a total volume of […].
The assay was performed according to the method of Rittenhouse [Rittenhouse, S., Preparation of Selectively Labeled Phosphoinositol and Assay of Phosphoinositol-specific Phospholipase C in Methods in Enzymology, Lands, W. and Smith, W., eds., 86, 3-11 (1982)]. The hydrolysis of substrate to water soluble product was calculated on the basis of the specific activity of the substrate. The activity of the compounds was expressed as the percent inhibition of control (no compound) PLC hydrolysis. […] Arachidonic acid is the precursor of inflammagens such as leukotrienes and prostaglandins which are involved in the mediation of the inflammatory process.

A23187-induced ear edema = assay: A23187 Ear Edema Model (murine ear edema protocol); type: in vivo, mouse (male CF-1); details: 100 μg/ear topical in acetone; A23187 10 μg/ear; 6 h; 6 mm punch biopsy weight
Procedure: To measure anti-inflammatory activities of the investigational compounds the following standard murine ear edema protocol was used. Edema was induced by the calcium ionophore, A23187 (10 μg/ear) [Marks, F., Furstenberger, G., Kownatzki, E., Prostaglandin E Mediated Stimulation of Mouse Epidermis in vivo by Divalent Cation Ionophore A23187 and by Tumor Promotor TPA, Cancer Res., 41, 696-702 (1981)]. Male CF-1 (Charles River) 18-20 grams were used. Investigational compounds (in acetone at 100 μg/ear) were applied to one ear just prior to application of the inflammagen (A23187). Six hours after A23187 application, edema was determined by comparing the weights of 6 mm punch biopsies from control (solvent) and inflammagen-treated ears. Percent inhibition was calculated using standard equations.

IC50 (Platelet phospholipase C) [µM]	Structure (SMILES)	A23187 % inhibition (A23187-induced ear edema) [%]
15	N#Cc1c(N)oc2c1c(Cc1ccccc1)c(O)c1ccccc12 [Example 1, 2-Amino-4-benzyl-3-cyano-5-hydroxynaphtho[1,2-b]furan]	83
26	N#Cc1c(N)oc2c1c(Cc1ccccc1F)c(O)c1ccccc12 [Example 2, 2-amino-4-(2-fluoro)benzyl-3-cyano-5-hydroxynaphtho[1,2-b]furan]	71
120	N#Cc1c(N)oc2c1c(Cc1ccc(F)cc1)c(O)c1ccccc12 [Example 4, 2-amino-4-(4-fluoro)benzyl-3-cyano-5-hydroxynaphtho[1,2-b]furan]	58
190	COc1ccc2c(c1)c(O)c(Cc1ccccc1)c1c(C#N)c(N)oc12 [Example 11, 2-amino-4-benzyl-3-cyano-5-hydroxy-7-methoxynaphtho[1,2-b]furan]	82
55	COc1ccc2c(O)c(Cc3ccccc3)c3c(C#N)c(N)oc3c2c1 [Example 12, 2-amino-4-benzyl-3-cyano-5-hydroxy-8-methoxynaphtho[1,2-b]furan]	
56	COc1ccc2c(O)c(Cc3ccccc3F)c3c(C#N)c(N)oc3c2c1 [Example 16, 2-amino-4-(2-fluoro)benzyl-3-cyano-5-hydroxy-8-methoxynaphtho[1,2-b]furan]	
